Data published in publication PMC7582876, “Antiproliferative Properties of a Few Auranofin-Related Gold(I) and Silver(I) Complexes in Leukemia Cells and their Interferences with the Ubiquitin Proteasome System” (Molecules, 2020).

How the values were obtained:
[1] = test system: CCRF-CEM cells; assay: Resazurin cytotoxicity assay, drug-sensitive CCRF-CEM leukemia cells; assay type: cell-based, human; conditions: cell growth, 72 h incubation, IC50 ± SD, n = 3
Protocol: (§1) Drug-sensitive CCRF-CEM and multidrug-resistant (MDR) P-glycoprotein (P-gp)-over-expressing CEM/ADR5000 leukemic cells were kindly provided by Prof. Axel Sauerbrey (Department of Pediatrics, University of Jena, Germany). Cells were cultured in RPMA1640 medium including 10% fetal bovine serum (FBS) and 1% penicillin (1000 U/mL)/streptomycin (100 µg/mL) (Life Technologies, Darmstadt, Germany). Doxorubicin (5000 ng/mL) was added to maintain overexpression of P-gp (MDR1 and ABCB1) in CEM/ADR5000 cells. Doxorubicin was obtained from the University Pharmacy of the University Medical Center Mainz. CEM/ADR5000 cells display a more than 1000-fold resistance to doxorubicin [27] and are therefore a suitable model to identify novel drugs without or very low cross-resistance.
(§2) The cytotoxic effects of the compounds solved in DMSO (Sigma-Aldrich, Taufkirchen, Germany) were tested by the resazurin assay. This assay is based on reduction of the indicator dye, resazurin, to the highly fluorescent resorufin by viable cells. Cells lethally damaged by cytotoxic compounds rapidly lose the enzymatic capability to reduce non-fluorescent resazurin to the highly fluorescent resorufin. As the reductive potential happens in a dose-dependent manner, this chemical reaction can be exploited to quantitatively determine the cytotoxic potential of investigational compounds and to measure dose-response relationships. With increasing concentrations of a cytotoxic drug, the fluorescence signal fades out. Aliquots of 10,000 cells/100 µL cells were seeded into 96-well plates (Thermo-Scientific, Dreieich, Germany) and immediately treated with various concentrations of each compound. After 72 h incubation at 37 °C, 20 µL resazurin 0.01% w/v solution (Invitrogen, Dreieich, Germany) were added to each well, and the plates were maintained at 37 °C for 4 h. Fluorescence was measuring by an Infinite M2000 Proplate reader (Tecan, Crailsheim, Germany) with an excitation wavelength of 544 nm and an emission wavelength of 590 nm. Each experiment was done at least three times with six replicates each. The viability was analyzed in comparison with untreated cells. […] It is a well-established measure to determine the cytotoxic potential of anticancer drugs. The IC50 values were calculated from a calibration curve by linear regression using Microsoft Excel.

[2] = molecular target: T1, bovine pancreatic α-chymotrypsin (Bos taurus, UniProt P00766); assay: Bovine pancreatic α-chymotrypsin inhibition screening; assay type: biochemical; conditions: over 10 min
T1 construct: from tissue; host or cells: bovine pancreas (from the enzyme's name only)
Protocol: 20S proteasome, isolated and purified from human erythrocytes, was obtained from a commercial source (Biomol GmbH, Hamburg, Germany), as well as the peptidic substrates (Bachem, Bubendorf, Switzerland) Suc-Leu-Leu-Val-Tyr-AMC, Boc-Leu-Arg-Arg-AMC and Cbz-Leu-Leu-Glu-AMC for ChT-L, T-L and PGPH (C-L) activity of the enzyme, respectively. The three distinct proteolytic activities of the 20S proteasome were measured by monitoring the hydrolysis of the substrates and detecting the fluorescence of the common product released, i.e., 7-amino-4-methyl coumarin (7-AMC), by means of an Infinite 200 PRO microplate reader (Tecan, Männedorf, Switzerland) at 30 °C with a 380-nm excitation filter and a 460-nm emission filter. All gold and silver complexes were tested against the three proteolytic activities of the 20S proteasome and against Cat-B, Cat-L and bovine pancreatic α-chymotrypsin at 10 µM concentrations over a period of 10 min using an equivalent amount of DMSO as a negative control. […]. The IC50 values were calculated with the program GraFit® using the two-parameter equation. More detailed experimental protocols for the assays against each proteolytic activity of the 20S proteasome, as well as against bovine pancreatic α-chymotrypsin, are already reported elsewhere (see also Supplementary Materials). Cat-B and Cat-L were purchased from Calbiochem, Darmstadt, Germany, and the related assays were performed as previously described. The employed fluorogenic substrate for both cysteine proteases was Cbz-Phe-Arg-AMC (80 µM for Cat-B; 5 µM for Cat-L).
Assay for Bovine Pancreatic α-Chymotrypsin Inhibition
The enzyme ([…]) was incubated at 20 °C with the test compound present at 10
µM (screening assay). The reaction buffer consisted of 50 mM Tris buffer pH 8.0
containing 100 mM NaCl, 5 mM EDTA and 7.5% DMSO. Product release from substrate
hydrolysis ([…] final concentration, Suc-Leu-Leu-Val-Tyr-AMC from Bachem) was
determined over a period of 10 min. […]

[3] = test system: CEM/ADR5000 cells; assay: Resazurin cytotoxicity assay, multidrug-resistant CEM/ADR5000 leukemia cells; assay type: cell-based, human; conditions: for IC50: cell growth, resazurin assay, 72 h incubation, IC50 ± SD, n = 3; for Degree of Resistance: ratio of IC50 of CEM/ADR5000 cells divided by IC50 of CCRF-CEM cells
Protocol: as §1, §2

[4] = molecular target: T2, chymotrypsin-like (ChT-L) activity of human 20S proteasome (Homo sapiens, UniProt P28074); assay: Inhibition of chymotrypsin-like activity of 20S proteasome (Suc-Leu-Leu-Val-Tyr-AMC); assay type: biochemical; conditions: for ChT-L inhibition at 10 µM: over 10 min; for IC50: 10 min, no pre-incubation, 30 °C
T2 construct: 20S proteasome, isolated and purified from human erythrocytes; purchased Biomol GmbH, Hamburg, Germany; host or cells: human erythrocytes (native complex)
Protocol: 20S proteasome, isolated and purified from human erythrocytes, was obtained from a commercial source (Biomol GmbH, Hamburg, Germany), as well as the peptidic substrates (Bachem, Bubendorf, Switzerland) Suc-Leu-Leu-Val-Tyr-AMC, Boc-Leu-Arg-Arg-AMC and Cbz-Leu-Leu-Glu-AMC for ChT-L, T-L and PGPH (C-L) activity of the enzyme, respectively. The three distinct proteolytic activities of the 20S proteasome were measured by monitoring the hydrolysis of the substrates and detecting the fluorescence of the common product released, i.e., 7-amino-4-methyl coumarin (7-AMC), by means of an Infinite 200 PRO microplate reader (Tecan, Männedorf, Switzerland) at 30 °C with a 380-nm excitation filter and a 460-nm emission filter. All gold and silver complexes were tested against the three proteolytic activities of the 20S proteasome and against Cat-B, Cat-L and bovine pancreatic α-chymotrypsin at 10 µM concentrations over a period of 10 min using an equivalent amount of DMSO as a negative control. […] The IC50 values were calculated with the program GraFit® using the two-parameter equation. More detailed experimental protocols for the assays against each proteolytic activity of the 20S proteasome, as well as against bovine pancreatic α-chymotrypsin, are already reported elsewhere (see also Supplementary Materials). Cat-B and Cat-L were purchased from Calbiochem, Darmstadt, Germany, and the related assays were performed as previously described. The employed fluorogenic substrate for both cysteine proteases was Cbz-Phe-Arg-AMC (80 µM for Cat-B; 5 µM for Cat-L). […]
Inhibition assay for the Chymotryptic Activity of the 20S Proteasome
Human 20S proteasome was incubated at 30 °C at a final concentration of 0.004 mg∙mL−1
with test compound present at 10 µM (screening assay) or at variable concentrations
(continuous assay). The reaction buffer consisted of 50 mM Tris pH 7.5, 10 mM NaCl, 25
mM KCl, 1 mM MgCl2, 0.03% SDS and 5% DMSO. Product release from substrate
hydrolysis ([…]) was monitored continuously over a period of 10 min. […]

SMILES	IC50 [1] [nM]	Bovine Pancreatic α-Chymotrypsin Inhibition (%) at 10 µM [2]	IC50 [3] [nM]	Degree of Resistance [3]	ChT-L inhibition at 10 µM [4]	IC50 [4] [nM]
CC[PH](CC)(CC)[Ag][I] [Ag(PEt3)I]	1280 ± 120	n.i.	1460 ± 150	1.14	25 ± 0.2%	
CC[PH](CC)(CC)[Ag][Cl] [Ag(PEt3)Cl]	1360 ± 250	n.i.	2640 ± 480	1.94	28 ± 0.5%	
CCP(CC)CC.[Br][Au] [Au(PEt3)Br]	280 ± 60	n.i.	270 ± 50	0.96		1400 ± 800
CCP(CC)CC.[Au+].[Cl-] [Au(PEt3)Cl]	350 ± 30	n.i.	260 ± 40	0.74		2600 ± 300
CC(=O)OC[C@H]1O[C@@H]([S-])[C@H](OC(C)=O)[C@@H](OC(C)=O)[C@@H]1OC(C)=O.CCP(CC)CC.[Au+] [auranofin, Auranofin]	220 ± 80	n.i. ^a	280 ± 60	1.27	n.i. ^a	
CC[P](CC)(CC)[Au][I] [Au(PEt3)I]	320 ± 70	n.i.	280 ± 80	0.87		6100 ± 400
CC[PH](CC)(CC)[Ag][Br] [Ag(PEt3)Br]	1500 ± 100	n.i.	3890 ± 700	2.59	22 ± 0.4%	
CCP(CC)CC.CCP(CC)CC.O=[N+]([O-])[O-].[Ag+] [[Ag(PEt3)2]NO3]		n.i.		3.05	38 ± 5.0%	
